{"source": "paper PMC9029618", "about": "“Attenuation of Scopolamine-Induced Amnesia via Cholinergic Modulation in Mice by Synthetic Curcumin Analogs” (Molecules, 2022)", "key": {"[1]": {"biological_target": "T1, AChE activity in the hippocampi of mice brains (Mus musculus, UniProt P21836)", "T1 construct": "from tissue; host or cells: mouse bilateral hippocampus homogenate, supernatant", "T1 sequence (P21836 32-614)": "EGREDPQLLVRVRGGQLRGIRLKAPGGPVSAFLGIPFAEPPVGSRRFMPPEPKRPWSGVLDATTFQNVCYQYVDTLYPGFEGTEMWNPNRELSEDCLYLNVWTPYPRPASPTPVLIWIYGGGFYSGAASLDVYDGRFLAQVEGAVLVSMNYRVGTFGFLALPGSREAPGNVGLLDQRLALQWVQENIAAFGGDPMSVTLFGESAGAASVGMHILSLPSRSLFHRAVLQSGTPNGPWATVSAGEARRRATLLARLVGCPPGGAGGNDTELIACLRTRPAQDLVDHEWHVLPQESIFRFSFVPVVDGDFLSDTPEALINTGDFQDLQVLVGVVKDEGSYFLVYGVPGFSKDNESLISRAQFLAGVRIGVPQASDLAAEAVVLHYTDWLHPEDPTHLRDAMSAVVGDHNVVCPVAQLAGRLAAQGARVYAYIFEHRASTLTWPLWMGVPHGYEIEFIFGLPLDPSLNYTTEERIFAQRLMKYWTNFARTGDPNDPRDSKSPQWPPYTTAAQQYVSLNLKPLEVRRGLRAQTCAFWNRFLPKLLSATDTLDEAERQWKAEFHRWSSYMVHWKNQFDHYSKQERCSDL", "type": "in vivo", "settings": "ex vivo, vs scopolamine treated group, n = 6", "experimental": "(§1) After the behavioral study, the mice were sacrificed by decapitation, providing a quick and painless death by cervical dislocation. The isolated brain of each animal in chilled phosphate buffer saline was subjected into biomarker assays using AChE and BuChE enzymes.\nMice were sacrificed within 24 h of the behavior study; brains were dissected and stored at −80 °C. […] Supernatant was used for the measurement of cholinesterase (AChE and BuChE) activity.\nAcetylcholine/Acetyl cholinesterase assay Kit was used for the determination of AChE activity, according to the standard procedure. The assay was carried out using 96-well plate, and every reaction comprised of 100 µL sample, 200 µM Amplex Red reagent, 50 µM of acetylcholine, 1 U/mL horseradish peroxidase (HRP) and 0.1 U/mL choline oxidase in buffer solution. Incubation period for the reaction mixture was 20 min at room temperature in the dark. The fluorescence intensity at 560 nm excitation and 580 nm emission wavelength was measured."}, "[2]": {"system": "scopolamine-induced amnesic mice", "experiment": "Elevated plus maze (EPM), scopolamine-induced amnesia", "type": "in vivo", "settings": "scopolamine 1 mg/kg i.p.", "text": "Elevated plus maze paradigm is an important behavioral model for evaluation of anti-amnesic potentials in mice. This apparatus comprised of two open and two closed arms with dimensions of 16 cm × 5 cm × 12 cm and elevated 25 cm from the floor on a wooden stand. The EPM was designed in plus shape from two acrylic sheets having a central platform with dimensions of 5 cm × 5 cm. Initially, mice were placed in one of the open arms in such a way that it was directed away from the central platform. Then TLT was recorded after the mice moved to the closed arm, with their four legs from the open arm and then the mice were returned to their home cage. The time of exploration of the apparatus for each animal was 90 s. […] Reduction of TLT indicated memory-enhancing effect of the test samples. The inflexion ratio (IR) was calculated as: IR=L0−L1/L0 where L1 presents the initial transfer latency (s), and L0 is the retention transfer latency (s)."}, "[3]": {"biological_target": "T2, BuChE activity in the hippocampi of mice brains (Mus musculus, UniProt Q03311)", "T2 construct": "from tissue; host or cells: mouse bilateral hippocampus homogenate, supernatant", "T2 sequence (Q03311 30-603)": "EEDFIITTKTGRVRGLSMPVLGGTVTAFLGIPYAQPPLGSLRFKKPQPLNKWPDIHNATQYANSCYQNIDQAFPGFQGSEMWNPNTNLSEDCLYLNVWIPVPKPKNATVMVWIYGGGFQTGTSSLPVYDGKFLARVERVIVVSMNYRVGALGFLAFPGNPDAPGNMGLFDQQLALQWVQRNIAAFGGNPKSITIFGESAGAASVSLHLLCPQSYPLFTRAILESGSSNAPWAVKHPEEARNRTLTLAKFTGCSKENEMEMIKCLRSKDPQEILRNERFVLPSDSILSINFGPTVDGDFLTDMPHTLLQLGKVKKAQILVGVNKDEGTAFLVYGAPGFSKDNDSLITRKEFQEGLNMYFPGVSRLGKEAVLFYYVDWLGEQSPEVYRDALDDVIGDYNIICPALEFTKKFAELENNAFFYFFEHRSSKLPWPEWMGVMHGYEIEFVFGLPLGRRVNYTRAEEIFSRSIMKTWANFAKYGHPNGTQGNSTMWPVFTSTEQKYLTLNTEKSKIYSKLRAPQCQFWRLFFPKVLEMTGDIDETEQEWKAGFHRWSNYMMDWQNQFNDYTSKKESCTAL", "experiment": "Ex vivo BuChE activity in the brain hippocampus", "settings": "vs scopolamine treated group, n = 6", "experimental": "as §1\nMice were sacrificed within 24 h of the behavior study; brains were dissected and stored at −80 °C. The bilateral hippocampus was homogenized before the assay into volumes of 0.01 M phosphate buffer (2.7 mM KCl, 137 mM NaCl, 2 mM KH2PO4, 10 mM Na2HPO4) and centrifuged at 4 °C for 30 min at 12,000× g. Supernatant was used for the measurement of cholinesterase (AChE and BuChE) activity.\nButyrylcholinesterase (BuChE) activity of the synthesized compounds were measured according to Ellman method with slight modification. BuSCh was hydrolyzed by BuChE and choline iodide produced, which reacted with DNTB, and then the production of TNB. The TNB was quantitated by calorimetry that indicated the BuChE activity. BuChE assay was accomplished in 96-well plate and every reaction mixture contained 40 µL sample, 80 µL DTNB (0.25 mg/mL) and 70 µL BuSCh (7.5 mM). The absorbance was determined at 37 °C after incubation for 60 min."}, "[4]": {"system": "scopolamine-induced amnesic mice", "experiment": "Y-maze test, scopolamine-induced amnesia", "settings": "scopolamine 1 mg/kg i.p.", "quoted_text": "A total of sixteen groups of mice, with six in each group, were used in the experiment. Vehicle treated group (Normal control group) were administered 10 mL/kg (p.o) of normal saline. […] Sample treatment groups were administered 7.5 mg/kg and 15 mg/kg (p.o) of synthesized compounds, respectively.\nThe dimensions of the arms were 15.5 cm high, 6 cm wide, 20 cm long and connected with each other with an angle of 120°. This test was conducted for a 5 min duration for each animal. The order and number of arm entries made by each animal after placing in one arm were recorded. Complete arm entry in any given arm was considered to be when the hind paws were completely inside, and the alternation was the consecutive arm entries into three different arms by each mouse. Ethanol 70% v/v solution was used to clean the Y-maze arena to avoid olfactory cues between each test. […] Mice were freely allowed to explore the objects when they were initially placed at the center of the apparatus. The formula was used to calculate the %SAP by recording the same arm returns (SAR), alternate arm returns (AAR) and the number of arm entries."}, "[5]": {"system": "scopolamine-induced amnesic mice", "experiment": "Novel object recognition test (NORT), scopolamine-induced amnesia", "type": "in vivo", "experimental": "In this study, the memory-enhancing potentials of synthesized compounds were determined using novel object recognition test mice model. Dimensions of the apparatus were 40 cm × 40 cm × 30 cm and designed from Plexiglass in a box shape. After acclimatization, the mice were habituated with the apparatus for 2–3 min one day before the test. Initially, in the sample phase, two identical objects were placed in the two corners of the apparatus and the mice were allowed to freely explore the apparatus. The objects in the apparatus were explored by each animal either by touching the objects or keeping their noses within 2 cm of them. […] Mice were allowed again to freely explore both the objects in a similar way as in sample phase, and the time spent by each animal exploring the novel and familiar object (F) was recorded.\nThe following formula was used for calculation of discrimination index. D1=N—F /N+F\nD1 = discrimination index; N = novel object; F = familiar object"}, "BuChE": {"biological_target": "T3, BuChE (Equus caballus, UniProt P81908)", "T3 construct": "The enzymes AChE and BuChE were obtained from electric eel and equine serum, respectively; from tissue; host or cells: equine serum", "T3 sequence (P81908 whole entry)": "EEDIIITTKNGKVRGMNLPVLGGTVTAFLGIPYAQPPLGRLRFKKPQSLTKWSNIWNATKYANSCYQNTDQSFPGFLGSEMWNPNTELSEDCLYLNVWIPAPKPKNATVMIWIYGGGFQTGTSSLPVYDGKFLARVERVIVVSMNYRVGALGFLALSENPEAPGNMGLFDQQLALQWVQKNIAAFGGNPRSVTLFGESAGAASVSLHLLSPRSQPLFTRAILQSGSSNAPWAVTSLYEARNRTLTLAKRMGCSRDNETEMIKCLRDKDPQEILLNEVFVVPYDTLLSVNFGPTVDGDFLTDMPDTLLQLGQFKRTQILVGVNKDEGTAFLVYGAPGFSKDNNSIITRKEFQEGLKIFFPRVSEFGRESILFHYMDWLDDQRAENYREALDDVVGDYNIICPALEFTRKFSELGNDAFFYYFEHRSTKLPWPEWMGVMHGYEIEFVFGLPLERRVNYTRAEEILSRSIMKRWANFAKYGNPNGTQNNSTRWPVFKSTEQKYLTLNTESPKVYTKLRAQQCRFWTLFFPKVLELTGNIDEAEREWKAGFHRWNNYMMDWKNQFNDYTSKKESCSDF", "experiment": "biochemical", "settings": "BuChE from equine serum, Ellman's method, n = 3; read-out: BuChEI (IC50 (nM))", "experimental": "(§2) The in vitro cholinesterase assay of the synthesized curcumin analogs were carried out according to the Ellman’s method with slight modification. The enzymes AChE and BuChE were obtained from electric eel and equine serum, respectively. […] The final concentrations of AChE 0.03 U/mL and 0.01 U/mL of BuChE were achieved. […] The experiment was started by adding 5 µL enzyme solutions to cuvette, then 205 µL test sample and 5 µL DTNB reagents were added. Substrate solution (5 µL) was added, and the solution mixture was kept in a water bath for 15 min at 30 °C."}, "AChE": {"biological_target": "T4, AChE (Electrophorus electricus, UniProt O42275)", "T4 construct": "The enzymes AChE and BuChE were obtained from electric eel and equine serum, respectively; from tissue; host or cells: electric eel", "T4 sequence (O42275 24-633)": "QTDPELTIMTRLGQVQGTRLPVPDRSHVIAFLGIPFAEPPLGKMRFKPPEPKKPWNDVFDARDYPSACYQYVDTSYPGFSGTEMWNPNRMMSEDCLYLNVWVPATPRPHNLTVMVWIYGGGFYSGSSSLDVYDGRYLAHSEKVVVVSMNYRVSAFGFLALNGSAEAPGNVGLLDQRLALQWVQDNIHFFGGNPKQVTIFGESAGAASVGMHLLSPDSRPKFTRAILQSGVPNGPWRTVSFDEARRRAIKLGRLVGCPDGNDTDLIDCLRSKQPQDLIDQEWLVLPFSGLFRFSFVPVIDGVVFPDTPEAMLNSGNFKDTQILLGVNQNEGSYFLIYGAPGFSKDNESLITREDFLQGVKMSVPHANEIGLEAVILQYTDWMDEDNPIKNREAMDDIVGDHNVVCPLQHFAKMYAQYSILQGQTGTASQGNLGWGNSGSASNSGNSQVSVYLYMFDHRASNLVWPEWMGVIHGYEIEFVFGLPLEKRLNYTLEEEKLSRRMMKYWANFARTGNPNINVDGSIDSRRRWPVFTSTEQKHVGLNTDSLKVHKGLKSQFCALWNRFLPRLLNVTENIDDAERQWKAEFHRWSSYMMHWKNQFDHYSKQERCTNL", "experiment": "biochemical", "settings": "AChE from electric eel, Ellman's method, n = 3; read-out: AChEI (IC50 (nM))", "experimental": "as §2"}}}
{"smiles": "O=C(/C=C/c1ccc(Cl)cc1)CC(=O)/C=C/c1ccc(Cl)cc1", "note": "[Compound 1d, (1E,6E)-1,7-bis(4-chlorophenyl)hepta-1,6-diene-3,5-dione]", "values": [{"measurement": "effect on scopolamine-increased AChE activity in hippocampus", "setting": "[1]", "value": "markedly reduced the increased activity of AChE"}, {"measurement": "effect on TLT vs amnesic group", "setting": "[2]; 7.5 mg/kg p.o. 7 days", "value": "significantly reduced TLT"}, {"measurement": "effect on TLT vs amnesic group", "setting": "[2]; 15 mg/kg p.o. 7 days", "value": "significantly reduced TLT"}, {"measurement": "effect on scopolamine-increased BuChE activity in hippocampus", "setting": "[3]", "value": "decreased the increased BuChE activity"}, {"measurement": "% spontaneous alternation performance (% SAP)", "setting": "[4]; 7.5 mg/kg p.o. 7 days", "value": "55.66 ± 2.82", "unit": "%"}, {"measurement": "% spontaneous alternation performance (% SAP)", "setting": "[4]; 15 mg/kg p.o. 7 days", "value": "67.66 ± 2.84", "unit": "%"}, {"measurement": "discrimination index (DI)", "setting": "[5]; long-term memory (after 24 h), 7.5 mg/kg", "value": 63.78, "unit": "%"}, {"measurement": "discrimination index (DI)", "setting": "[5]; long-term memory (after 24 h), 15 mg/kg", "value": 64.61, "unit": "%"}, {"measurement": "discrimination index (DI)", "setting": "[5]; short-term memory, 7.5 mg/kg", "value": 61.43, "unit": "%"}, {"measurement": "discrimination index (DI)", "setting": "[5]; short-term memory, 15 mg/kg", "value": 62.03, "unit": "%"}, {"measurement": "IC50", "setting": "BuChE", "value": 378, "unit": "nM"}, {"measurement": "IC50", "setting": "AChE", "value": 113, "unit": "nM"}]}
